In patent US11008334B2, “Compositions and methods for treating cancer” (The Regents of the University of California, priority 2012, dated 2021):
Where two headings read alike, the source gives them in different places.

Target: T1, K-RasG12C (1-169) (Homo sapiens, UniProt P01116, G12C)
T1 construct: Un-tagged recombinant K-Ras G12C (1-169) at 4 μM in Buffer A; hexahistidine (cleaved yes); made in house; host or cells: Escherichia coli BL21 (DE)
Assay: Mass spectrometric screen for extent of covalent labeling
Format: binding
Conditions: for percent covalent labeling at 10 µM: 10 micromolar; for Labeling % (10 micM) 24h: 10 micM compound, (plate) or (single) measurement
Experimental: Un-tagged recombinant K-Ras G12C (1-169) at 4 μM in Buffer A was reacted with inhibitors at 200 μM or 10 μM (2% DMSO final). At 2, 6, and 24 hrs, 10 μL aliquots were removed and the reactions were stopped by addition of 1 μL 2% formic acid. The extent of modification was determined by mass spectrometry.

[1] = 2 h, 2 hrs, read-out: Percent reduction in activity of compound at 10 micromolar relative to control (no compound), 2 hrs
[2] = 6 h, 6 hrs, read-out: Percent reduction in activity of compound at 10 micromolar relative to control (no compound), 6 hrs
[3] = 24 h, 24 hrs, read-out: Percent reduction in activity of compound at 10 micromolar relative to control (no compound), 24 hrs

percent covalent labeling at 10 µM [1] | percent covalent labeling at 10 µM [2] | percent covalent labeling at 10 µM [3] | Labeling % (10 micM) 24h | Labeling % (10 micM) 24h (Table 5) | Compound
≤ 5% | ≤ 5% | ≤ 5% | – | – | CN(C)C/C=C/C(=O)NC1CCN(C(=O)COc2ccc(Cl)cc2Cl)CC1 [Ras-007]
≤ 5% | ≤ 5% | ≤ 5% | – | – | C=CS(=O)(=O)NC1CCN(C(=O)COc2c(Cl)cc(Cl)cc2Cl)CC1 [Ras-008]
≤ 5% | ≤ 5% | ≤ 5% | – | – | C=CS(=O)(=O)NC1CCN(C(=O)Cn2ncc3ccccc32)CC1 [Ras-009]
≤ 5% | ≤ 5% | ≤ 5% | – | – | C=CS(=O)(=O)NC1CCN(C(=O)CCn2ncc3ccccc32)CC1 [Ras-010]
≤ 5% | ≤ 5% | 20 to 40% | – | – | C=CS(=O)(=O)NC1CCN(C(=O)COc2cc(C(F)(F)F)c(Cl)cc2Cl)CC1 [Ras-011]
≤ 5% | ≤ 5% | ≤ 5% | – | – | C=CS(=O)(=O)NC1CCN(C(=O)CCn2cnc3ccccc32)CC1 [Ras-012]
≤ 5% | ≤ 5% | 5 to 20% | – | – | C=CS(=O)(=O)NC1CCN(C(=O)COc2cc(C#N)c(Cl)cc2Cl)CC1 [Ras-013]
≤ 5% | ≤ 5% | ≤ 5% | – | – | C=CS(=O)(=O)NC1CCN(C(=O)Cn2cnc3ccccc32)CC1 [Ras-014]
≤ 5% | ≤ 5% | 20 to 40% | – | – | C=CS(=O)(=O)NC1CCN(C(=O)COc2ccc(Cl)cc2Br)CC1 [Ras-015]
≤ 5% | ≤ 5% | ≤ 5% | – | – | C=CS(=O)(=O)NC1CCN(C(=O)COc2ccc(Cl)cc2NC(C)=O)CC1 [Ras-016]
≤ 5% | ≤ 5% | ≤ 5% | – | – | C=CS(=O)(=O)NC1CCN(C(=O)COc2ccc(Cl)cc2F)CC1 [Ras-017]
≤ 5% | ≤ 5% | 20 to 40% | – | – | C=CS(=O)(=O)NC1CCN(C(=O)COc2ccc(Cl)cc2C)CC1 [Ras-018]
≤ 5% | ≤ 5% | 5 to 20% | – | – | C=CS(=O)(=O)NC1CCN(C(=O)COc2cc(N)c(Cl)cc2Cl)CC1 [Ras-019]
≤ 5% | ≤ 5% | ≤ 5% | – | – | C=CS(=O)(=O)NC1CCN(C(=O)COc2ccc(Cl)cc2C(=O)OC)CC1 [Ras-020]
≤ 5% | ≤ 5% | ≤ 5% | – | – | C=CS(=O)(=O)NC1CCN(C(=O)COc2ccc(Cl)cc2C#N)CC1 [Ras-021]
≤ 5% | ≤ 5% | ≤ 5% | – | – | C=CS(=O)(=O)NC1CCN(C(=O)COc2cc(NC(C)=O)c(Cl)cc2Cl)CC1 [Ras-022]
≤ 5% | ≤ 5% | ≤ 5% | – | – | C=CS(=O)(=O)NC1CCN(C(=O)COc2ccc(Cl)cc2C(N)=O)CC1 [Ras-023]
≤ 5% | ≤ 5% | ≤ 5% | – | – | C=CS(=O)(=O)NC1CCN(C(=O)COc2cc(NC)c(Cl)cc2Cl)CC1 [Ras-024]
≤ 5% | ≤ 5% | ≤ 5% | – | – | C=CS(=O)(=O)NC1CCN(C(=O)COc2ccc(Cl)cc2C(=O)N(C)C)CC1 [Ras-025]
≤ 5% | ≤ 5% | 5 to 20% | – | – | C=CS(=O)(=O)NC1CCN(C(=O)COc2cc(N(C)C)c(Cl)cc2Cl)CC1 [Ras-026]
≤ 5% | ≤ 5% | ≤ 5% | – | – | C=CS(=O)(=O)NC1CCN(C(=O)COc2cc(OCCN)c(Cl)cc2Cl)CC1 [Ras-027]
≤ 5% | ≤ 5% | 20 to 40% | +++ (plate) (20%< +++ <=40%) | +++ (plate) (20%< +++ <=40%) | C=CS(=O)(=O)NC1CCN(C(=O)CNc2ccc(Cl)cc2Cl)CC1 [Ras-028]
≤ 5% | ≤ 5% | ≤ 5% | – | – | C=CS(=O)(=O)NC1CCN(C(=O)COc2ccc(Cl)cc2N2CCCC2)CC1 [Ras-029]
≤ 5% | ≤ 5% | 40 to 60% | – | – | C=CS(=O)(=O)NC1CCN(C(=O)COc2ccc(Cl)cc2I)CC1 [Ras-030]

percent covalent labeling at 10 µM [1] | percent covalent labeling at 10 µM [2] | percent covalent labeling at 10 µM [3] | Labeling % (10 micM) 24h | Labeling % (10 micM) 24h (Table 5) | Compound
≤ 5% | ≤ 5% | ≤ 5% | – | – | C=CS(=O)(=O)NC1CCN(C(=O)COc2ccc(Cl)cc2CNC(C)=O)CC1 [Ras-031]
≤ 5% | ≤ 5% | ≤ 5% | – | – | C=CS(=O)(=O)NC1CCN(C(=O)COc2ccc(Cl)cc2CN)CC1 [Ras-032]
≤ 5% | ≤ 5% | ≤ 5% | – | – | C=CS(=O)(=O)NC1CCN(C(=O)COc2ccc(Cl)cc2N)CC1 [Ras-033]
≤ 5% | ≤ 5% | ≤ 5% | – | – | C=CS(=O)(=O)NC1CCN(C(=O)COc2ccc(Cl)cc2N(C)C)CC1 [Ras-034]
≤ 5% | ≤ 5% | ≤ 5% | – | – | C=CS(=O)(=O)NC1CCN(C(=O)COc2cc(C(N)=O)c(Cl)cc2Cl)CC1 [Ras-035]
≤ 5% | 5 to 20% | 40 to 60% | – | – | C=CS(=O)(=O)NC1CCN(C(=O)COc2cc(I)c(Cl)cc2Cl)CC1 [Ras-036]
≤ 5% | ≤ 5% | 5 to 20% | – | – | C=CS(=O)(=O)NC1CCN(C(=O)COc2cc(C(=O)OC)c(Cl)cc2Cl)CC1 [Ras-037]
≤ 5% | ≤ 5% | ≤ 5% | – | – | C=CS(=O)(=O)NC1CCN(C(=O)COc2cc(C(=O)O)c(Cl)cc2Cl)CC1 [Ras-038]
≤ 5% | ≤ 5% | 5 to 20% | – | – | C=CS(=O)(=O)NC1CCN(C(=O)COc2cc(O)c(Cl)cc2Cl)CC1 [Ras-039]
≤ 5% | ≤ 5% | 20 to 40% | – | – | C=CS(=O)(=O)NC1CCN(C(=O)COc2cc(Br)c(Cl)cc2Cl)CC1 [Ras-040]
≤ 5% | ≤ 5% | 5 to 20% | – | – | C=CS(=O)(=O)NC1CCN(C(=O)COc2ccc(Cl)cc2OC)CC1 [Ras-041]
≤ 5% | ≤ 5% | 5 to 20% | – | – | C=CS(=O)(=O)NC1CCN(C(=O)COc2ccc(Cl)cc2C=O)CC1 [Ras-042]
≤ 5% | ≤ 5% | ≤ 5% | – | – | C=CS(=O)(=O)NC1CCN(C(=O)COc2cc(C(C)=O)c(Cl)cc2Cl)CC1 [Ras-043]
≤ 5% | ≤ 5% | 5 to 20% | – | – | C=CS(=O)(=O)NC1CCN(C(=O)COc2cc(C(C)O)c(Cl)cc2Cl)CC1 (centres unmarked) [Ras-044]
≤ 5% | ≤ 5% | ≤ 5% | – | – | C=CS(=O)(=O)NC1CCN(C(=O)COc2cc(-c3nn[nH]n3)c(Cl)cc2Cl)CC1 [Ras-045]
≤ 5% | ≤ 5% | ≤ 5% | – | – | C=CS(=O)(=O)NC1CCN(C(=O)COc2ccc(Cl)cc2C(=O)N2CCC(NS(=O)(=O)C=C)CC2)CC1 [Ras-046]
≤ 5% | ≤ 5% | ≤ 5% | – | – | C=CS(=O)(=O)NC1CCN(C(=O)COc2cc(S(N)(=O)=O)c(Cl)cc2Cl)CC1 [Ras-047]
≤ 5% | ≤ 5% | 5 to 20% | – | – | C=CS(=O)(=O)NC1CCN(C(=O)COc2cc(OCCO)c(Cl)cc2Cl)CC1 [Ras-048]
≤ 5% | ≤ 5% | ≤ 5% | – | – | C=CS(=O)(=O)NC1CCN(C(=O)COc2cc(C(=O)NCCO)c(Cl)cc2Cl)CC1 [Ras-049]
≤ 5% | ≤ 5% | 5 to 20% | – | – | C=CS(=O)(=O)NC1CCN(C(=O)COc2cc(CO)c(Cl)cc2Cl)CC1 [Ras-050]
≤ 5% | ≤ 5% | 5 to 20% | – | – | C=CS(=O)(=O)NC1CCN(C(=O)COc2ccc(Cl)cc2CO)CC1 [Ras-051]
≤ 5% | ≤ 5% | 5 to 20% | – | – | C=CS(=O)(=O)NC1CCN(C(=O)CN(C)c2cc(Cl)c(Cl)cc2I)CC1 [Ras-052]
≤ 5% | 5 to 20% | 40 to 60% | – | – | C=CS(=O)(=O)NC1CCN(C(=O)COc2cc(Cl)c(Cl)cc2I)CC1 [Ras-053]
